Molecules are shown by their SMILES.

Data on two compounds can be found in publication PMC6747129 (International Journal of Molecular Sciences, 2019).

The target in data set [1] is T1, CYP3A4 (Homo sapiens, UniProt P08684).
For data set [2], the target named is T1, CYP3A4. Description: in vitro. The following applies: pH 7.4.
Data set [3] deals with microsomal and recombinant CYP3A4. The following applies: reversible and mechanism-based inhibition of CYP3A4; cited from earlier work.
In data set [4] the target is T1, CYP3A4. Description: biochemical.

T1 sequence (P08684 whole entry): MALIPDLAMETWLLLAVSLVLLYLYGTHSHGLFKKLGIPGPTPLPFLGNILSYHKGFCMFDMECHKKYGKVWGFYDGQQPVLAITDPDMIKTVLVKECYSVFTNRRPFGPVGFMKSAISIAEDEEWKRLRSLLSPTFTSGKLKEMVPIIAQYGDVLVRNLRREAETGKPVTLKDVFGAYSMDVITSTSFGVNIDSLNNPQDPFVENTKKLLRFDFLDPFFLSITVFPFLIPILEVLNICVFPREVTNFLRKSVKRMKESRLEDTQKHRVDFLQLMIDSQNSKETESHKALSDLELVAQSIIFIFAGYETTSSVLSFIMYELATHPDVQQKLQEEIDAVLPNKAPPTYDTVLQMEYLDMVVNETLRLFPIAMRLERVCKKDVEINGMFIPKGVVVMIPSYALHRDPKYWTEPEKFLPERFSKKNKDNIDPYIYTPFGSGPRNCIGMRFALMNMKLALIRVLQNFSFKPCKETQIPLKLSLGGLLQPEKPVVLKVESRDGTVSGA

The term Kd denotes the concentration at which binding is half-saturated. Higher therefore signals a looser complex. Usually IC50 stands for the concentration at which inhibition is half-maximal. For `C/C(=C\COc1c2ccoc2cc2oc(=O)ccc12)CCC(O)C(C)(C)O` (stereo not shown) [DHB, 6′,7′-dihydroxybergamottin], the “share of the total absorbance decrease (Soret band) due to occupation of the high affinity site” value on CYP3A4 [1] (DHB titration, two-site fit) is listed as ~ 17%. The Kd on CYP3A4 [2] was found to be 10.3 ± 1.4 µM; at CYP3A4 [4] it was 0.22 ± 0.03 µM. Moreover, in data set [3], the IC50 was 2 to 23 µM.

In the case of `CC(C)=CCC/C(C)=C/COc1c2ccoc2cc2oc(=O)ccc12` [bergamottin], the “n, Hill coefficient” value at CYP3A4 [1] (sigmoidal fit of titration curve, ligand-free CYP3A4) is 1.8. Also, the IC50 in data set [3] was 2 to 23 µM. Further, at CYP3A4 [4], binding was put at a Kd of 3 ± 0.3 µM.
